US12502362B2, “Inhibitors of nucleotidyltransferase superfamily enzymes as antibiotics” (priority 2017, dated 2025)
Like-named read-outs stand apart in the source and are kept apart here.

Columns and labels:
[1] = tested on: S. aureus ATCC strains and MRSA; assay type: cell-based, Staphylococcus aureus
[2] = tested on: Staphylococcus epidermidis; assay type: cell-based
Description: (§1) It was also tested whether compounds #63 and #285 can inhibit other coagulase-negative Staphylococcus (CNS) including S. epidermidis, S. hominis, etc. […].

Staphylococcus hominis = assay type: cell-based
Description: as §1

[3] = tested on: Coagulase negative Staphylococcus; test: Antibiotic susceptibility of coagulase negative Staphylococcus strains; assay type: cell-based
[4] = tested on: MDR Acinetobacter baumannii; assay type: cell-based
Excerpt: (§2) All these MDR-bacteria are at least resistant to two classes of the antibiotics among five groups and/or specific antibiotics including quinolones/fluorquinolones, carbapenems, cephalosporins, aminoglycosides and piperacillin-tazobactam.

MDR E. coli = assay type: cell-based
Excerpt: as §2

Citrobacter koseri = test: Antibiotic susceptibility of Citrobacter koseri strain; assay type: cell-based; settings: Ck1 (Citrobacter koseri)
Excerpt: as §2

[5] = tested on: Enterobacter cloacae complex; test: Antibiotic susceptibility of Enterobacter cloacae complex strain; assay type: cell-based; settings: Ecc1 (Enterobacter cloacae complex)
Excerpt: as §2

Morganella morganii = test: Antibiotic susceptibility of Morganella morganii strain; assay type: cell-based; settings: Mm1 (Morganella morganii)
Excerpt: as §2

Klebsiella pneumonia = test: Antibiotic susceptibility of Klebsiella pneumonia strains; assay type: cell-based
Excerpt: as §2

[6] = CNS1 (Coagulase negative Staphylococcus)
[7] = CNS2 (Coagulase negative Staphylococcus)

Gentamicin
R: Antibiotic susceptibility ([1]; S. aureus ATCC BAA 1026) | Antibiotic susceptibility ([2]; Se3 (Staphylococcus epidermidis)) | Antibiotic susceptibility ([2]; Se4 (Staphylococcus epidermidis)) | Antibiotic susceptibility ([4]; Ab2 (Acinetobacter baumannii)) | Antibiotic susceptibility ([4]; Ab3 (Acinetobacter baumannii)) | Antibiotic susceptibility ([4]; Ab4 (Acinetobacter baumannii)) | Antibiotic susceptibility ([4]; Ab5 (Acinetobacter baumannii)) | Antibiotic susceptibility (MDR E. coli; Ec1 (E. coli)) | Antibiotic susceptibility (MDR E. coli; Ec2 (E. coli)) | Antibiotic susceptibility (MDR E. coli; Ec3 (E. coli)) | Antibiotic susceptibility (Citrobacter koseri) | Antibiotic susceptibility [5] | Antibiotic susceptibility (Morganella morganii)
I: Antibiotic susceptibility ([2]; Se5 (Staphylococcus epidermidis))
S: Antibiotic susceptibility ([1]; S. aureus ATCC 25923) | Antibiotic susceptibility ([1]; S. aureus ATCC 29213) | Antibiotic susceptibility ([1]; S. aureus ATCC BAA 976) | Antibiotic susceptibility ([1]; S. aureus ATCC BAA 977) | Antibiotic susceptibility ([1]; Sa1 (MRSA)) | Antibiotic susceptibility ([1]; Sa2 (MRSA)) | Antibiotic susceptibility ([1]; Sa3 (MRSA)) | Antibiotic susceptibility ([1]; Sa5 (MRSA)) | Antibiotic susceptibility ([1]; Sa6 (MRSA)) | Antibiotic susceptibility ([1]; Sa7 (MRSA)) | Antibiotic susceptibility ([1]; Sa8 (MRSA)) | Antibiotic susceptibility ([1]; Sa9 (MRSA)) | Antibiotic susceptibility ([1]; Sa10 (MRSA)) | Antibiotic susceptibility ([1]; Sa11 (MRSA)) | Antibiotic susceptibility ([1]; Sa12 (MRSA)) | Antibiotic susceptibility ([1]; Sa14 (MRSA)) | Antibiotic susceptibility ([1]; Sa15 (MRSA)) | Antibiotic susceptibility ([1]; Sa16 (MRSA)) | Antibiotic susceptibility ([1]; Sa17 (MRSA)) | Antibiotic susceptibility ([1]; Sa18 (MRSA)) | Antibiotic susceptibility ([1]; Sa19 (MRSA)) | Antibiotic susceptibility ([1]; Sa20 (MRSA)) | Antibiotic susceptibility ([1]; Sa21 (MRSA)) | Antibiotic susceptibility ([1]; Sa22 (MRSA)) | Antibiotic susceptibility ([1]; Sa23 (MRSA)) | Antibiotic susceptibility ([2]; Se1 (Staphylococcus epidermidis)) | Antibiotic susceptibility ([2]; Se2 (Staphylococcus epidermidis)) | Antibiotic susceptibility (Staphylococcus hominis; Sh1 (Staphylococcus hominis)) | Antibiotic susceptibility (Staphylococcus hominis; Sh2 (Staphylococcus hominis)) | Antibiotic susceptibility (Staphylococcus hominis; Sh3 (Staphylococcus hominis)) | Antibiotic susceptibility [3, 6] | Antibiotic susceptibility [3, 7] | Antibiotic susceptibility ([4]; Ab1 (Acinetobacter baumannii)) | Antibiotic susceptibility (MDR E. coli; Ec4 (E. coli)) | Antibiotic susceptibility (MDR E. coli; Ec5 (E. coli)) | Antibiotic susceptibility (Klebsiella pneumonia; Kp1 (Klebsiella pneumonia)) | Antibiotic susceptibility (Klebsiella pneumonia; Kp6 (Klebsiella pneumonia))

Trimethoprim-Sulfamethoxazole [SXT]
R and S: Antibiotic susceptibility (Staphylococcus hominis)
S: Antibiotic susceptibility ([1]; S. aureus ATCC 25923) | Antibiotic susceptibility ([1]; S. aureus ATCC 29213) | Antibiotic susceptibility ([1]; S. aureus ATCC BAA 976) | Antibiotic susceptibility ([1]; S. aureus ATCC BAA 977) | Antibiotic susceptibility ([1]; Sa2 (MRSA)) | Antibiotic susceptibility ([1]; Sa3 (MRSA)) | Antibiotic susceptibility ([1]; Sa5 (MRSA)) | Antibiotic susceptibility ([1]; Sa6 (MRSA)) | Antibiotic susceptibility ([1]; Sa7 (MRSA)) | Antibiotic susceptibility ([1]; Sa8 (MRSA)) | Antibiotic susceptibility ([1]; Sa9 (MRSA)) | Antibiotic susceptibility ([1]; Sa10 (MRSA)) | Antibiotic susceptibility ([1]; Sa11 (MRSA)) | Antibiotic susceptibility ([1]; Sa12 (MRSA)) | Antibiotic susceptibility ([1]; Sa14 (MRSA)) | Antibiotic susceptibility ([1]; Sa16 (MRSA)) | Antibiotic susceptibility ([1]; Sa17 (MRSA)) | Antibiotic susceptibility ([1]; Sa18 (MRSA)) | Antibiotic susceptibility ([1]; Sa19 (MRSA)) | Antibiotic susceptibility ([1]; Sa20 (MRSA)) | Antibiotic susceptibility ([1]; Sa21 (MRSA)) | Antibiotic susceptibility ([1]; Sa22 (MRSA)) | Antibiotic susceptibility ([1]; Sa23 (MRSA)) | Antibiotic susceptibility [3, 6] | Antibiotic susceptibility [3, 7] | Antibiotic susceptibility (MDR E. coli; Ec4 (E. coli)) | Antibiotic susceptibility [5]
2/21: MRSA strains resistant ([1]; number of resistant strains out of 21 MRSA strains)
R: Antibiotic susceptibility ([1]; S. aureus ATCC BAA 1026) | Antibiotic susceptibility ([1]; Sa1 (MRSA)) | Antibiotic susceptibility ([1]; Sa15 (MRSA)) | Antibiotic susceptibility [2] | Antibiotic susceptibility ([4]; Ab1 (Acinetobacter baumannii)) | Antibiotic susceptibility ([4]; Ab2 (Acinetobacter baumannii)) | Antibiotic susceptibility ([4]; Ab3 (Acinetobacter baumannii)) | Antibiotic susceptibility ([4]; Ab4 (Acinetobacter baumannii)) | Antibiotic susceptibility ([4]; Ab5 (Acinetobacter baumannii)) | Antibiotic susceptibility (MDR E. coli; Ec1 (E. coli)) | Antibiotic susceptibility (MDR E. coli; Ec2 (E. coli)) | Antibiotic susceptibility (MDR E. coli; Ec3 (E. coli)) | Antibiotic susceptibility (MDR E. coli; Ec5 (E. coli)) | Antibiotic susceptibility (Citrobacter koseri) | Antibiotic susceptibility (Morganella morganii) | Antibiotic susceptibility (Klebsiella pneumonia; Kp1 (Klebsiella pneumonia)) | Antibiotic susceptibility (Klebsiella pneumonia; Kp6 (Klebsiella pneumonia))
